The text below walks through data of PubChem BioAssay AID2060885 (Molecular Pharmacology Branch, DTP, NCI, 2025).

Molecules are shown by their SMILES. “And” between values parts separate entries of the source, which are not always exact repeats. Equal values may be shown once.

The assay has as its system NCI-H23 complex spheroids with HUVEC/MSC, viability. Put plainly: Anticancer human tumor NCI-H23 cell line growth inhibition [RAS].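 On all read-outs here: spheroids exposed to compound for 7 days.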 The following applies: for viability, T/C: stronger effect = lower value. From the text:
RAS pathway inhibitors in Combinations in Complex Spheroids
A high-throughput screen of multi-cell type tumor spheroids was designed to identify active combinations of RAS pathway inhibitors and targeted small molecules. Complex spheroids include a stromal component modeled by human endothelial cells (HUVEC) and fibroblasts modeled by human mesenchymal stem cells (MSCs). The concentration ranges selected for each drug and investigational agent were based upon clinically achievable concentrations if the clinical Cmax of the agent was known.
Compounds. The drugs and investigational agents: abemaciclib (NSC768073), cobimetinib (NSC768068), divarasib (GDC6063, NSC841802), docetaxel (NSC628503), GDC-1971 (RLY-1971, NSC841576), gemcitabine (NSC613327), inavolisib (NSC800729), ipatasertib (NSC767898), KB-0742 (NSC834161), MRTX-1133 (NSC836407), osimertinib (NSC779217), RMC-4630 (NSC839698), RMC-6236 (NSC851965), RMC-6291 (NSC852671), Ro-3306 (NSC812927), sapanisertib (NSC764658), SN-38 (NSC673596), staurosporine (NSC755774), SY5609 (NSC837396), and tovorafenib (DAY101, NSC766906), were obtained from the National Cancer Institute (NCI) Developmental Therapeutics Program Chemical Repository. The FDA-approved anticancer drug set is available from the NCI Developmental Therapeutics Program. […] The stock solutions were prepared in dimethyl sulfoxide (DMSO, Sigma-Aldrich, St. Louis, MO, cat. D2650) at 800-fold the tested concentration and stored at -70 degrees C prior to their use. All drugs and investigational agents were tested over a range starting from a high concentration at or near the clinical Cmax and decreasing in half-log increments. If the clinical Cmax for an agent had not been determined, the highest concentration tested was 10 microM.
Cell Culture. All cells were maintained in an incubator at 37 degrees C and 5% CO2 with 95% humidity. The PDC lines were cultured according to standard operating procedures established by the NCI PDMR. All PDCs were thawed and cultured in Matrigel-coated flasks prepared with a working solution of 1X Ham's F-12 nutrient mix, without supplementation (Invitrogen, Waltham, MA, cat. 11765054), 100 U/mL penicillin-streptomycin (Invitrogen, cat. 15140122), and 2.5% Matrigel (Corning Inc., Corning, NY, cat. 354248) for the first three passages. The 362531-283-R-J2-PDC and 782815-120-R-J1-PDC lines were cultured in 6C/Colon 1B media, which includes advanced DMEM/F-12 (Thermo Fisher Scientific, cat. 12634028), 10 mM HEPES (Thermo Fisher Scientific, cat. 15630080), 1X GlutaMAX supplement (Thermo Fisher Scientific, cat. 35050061), 0.1 mg/mL primocin (InvivoGen, San Diego, CA, cat. ant-pm-2), 10% defined fetal bovine serum, heat inactivated (HyClone Laboratories Inc., Logan, UT, cat. SH30070.03HI), 50% L-WRN conditioned media (ATCC, cat. CRL-3276), 1.25 mM N-Acetyl-L-cysteine (Sigma-Aldrich, cat. A9165), 10 mM nicotinamide (Sigma-Aldrich, cat. N0636), 1X B-27 supplement (Thermo Fisher Scientific, cat. 17504044), 1X N-2 supplement (Thermo Fisher Scientific, cat. 17502048), 50 ng/mL human EGF (Thermo Fisher Scientific, cat. PHG0311), and 10 microM Y-27632 dihydrochloride (Tocris Bioscience, cat. 1254). The K12877-001-R-J1-PDC line was cultured in 6I media, which includes all 6C/Colon 1B media plus 10 ng/mL human FGF-10 (PeproTech, cat. 100-26), 1 ng/mL human FGF-2 (PeproTech, cat. 100-18B), 1 µM prostaglandin E2 (Tocris Bioscience, cat. 2296), […] hydrocortisone (Sigma-Aldrich, cat. H4001), and […] bovine insulin (Sigma-Aldrich, cat. I6634). The K86415-001-R-J1-PDC line was cultured in 6D media, which includes all 6C/Colon 1B media components minus the L-WRN conditioned media. The 485176-168-R4-J1-PDC was cultured in PANC media, which includes all 6C/Colon 1B media plus 100 ng/mL human FGF-10 (PeproTech, cat. 100-26), 500 nM SB-431542 (Selleckchem, cat. S1067), and 10 nM gastrin (Tocris Bioscience, cat. 3006). […]

Broadly, the viability, T/C is the result in the treated group divided by that in the control group, in per cent. One may read the IC50 as the concentration that gives 50% inhibition. In the case of `CC(=O)OC12COC1CC(O)C1(C)C(=O)C(O)C3=C(C)C(OC(=O)C(O)C(NC(=O)OC(C)(C)C)c4ccccc4)CC(O)(C(OC(=O)c4ccccc4)C21)C3(C)C` (stereo not drawn), the viability, T/C was 31.2% [middle of 4 runs] (compound 0.0316 µM); 32.3% [middle of 4 runs] (compound 0.1 µM); 28.2% [middle of 4 runs] (compound 0.316 µM); 34.6% [middle of 4 runs] (compound 1 µM); 50.4% [middle of 4 runs] (compound 3.16 µM); 63.5% [middle of 4 runs] (compound 10 µM). Under “curve of compound”, the IC50 is < 31.6 nM.
On to `CC1(O)CCCC1n1c(=O)c(C(F)F)cc2cnc(NC3CCN(S(C)(=O)=O)CC3)nc21` (stereo not drawn), for which the viability, T/C was 94% [middle of 4 runs] (compound 0.0316 µM); 67.5% [middle of 4 runs] (compound 0.316 µM); 80.9% [middle of 4 runs] (compound 1 µM); 71.7% [middle of 4 runs] (compound 3.16 µM); 14.3% [middle of 4 runs] (compound 10 µM). For the same compound, the IC50 (curve of compound) is 4.68 µM [middle of 4 runs].
Turning to `CCC(CC)c1cc(NC2CCC(N)C2)n2nccc2n1` (stereo not drawn), the viability, T/C is 106% and 101% and 105% (2×) (compound 0.0316 µM); 108% [middle of 4 runs] (compound 0.1 µM); 101% [middle of 4 runs] (compound 0.316 µM); 88.2% [middle of 4 runs] (compound 1 µM); 15.2% [middle of 4 runs] (compound 3.16 µM); 0.91% [middle of 4 runs] (compound 10 µM). For the same compound, for the setting “curve of compound”, the IC50 is 1.81 µM [middle of 4 runs].
With `Cc1nc(N2CCC3(CC2)COC(C)C3N)c(CO)nc1Sc1ccnc(N)c1Cl` (stereo not drawn), the viability, T/C by setting is: (compound 0.0316 µM) 103% [middle of 4 runs]; (compound 0.316 µM) 74.3% [middle of 4 runs]; (compound 1 µM) 61.8% [middle of 4 runs]; (compound 3.16 µM) 52.3% [middle of 4 runs]; (compound 10 µM) 48.9% [middle of 4 runs].
In the case of `NC1c2ccccc2OC12CCN(c1cnc3c(N4CCCc5ncccc54)n[nH]c3n1)CC2` (stereo not drawn), the viability, T/C was 72.5% [middle of 4 runs] (compound 0.0316 µM); 66.6% [middle of 4 runs] (compound 0.1 µM); 44.9% [middle of 4 runs] (compound 0.316 µM); 42.2% [middle of 4 runs] (compound 1 µM); 41.3% [middle of 4 runs] (compound 3.16 µM); 44.1% [middle of 4 runs] (compound 10 µM).
For `C=CC(=O)Nc1cc(Nc2nccc(-c3cn(C)c4ccccc34)n2)c(OC)cc1N(C)CCN(C)C` + C#Cc1c(F)ccc2cc(O)cc(-c3ncc4c(N5CC6CCC(C5)N6)nc(OCC56CCCN5CC(F)C6)nc4c3F)c12, the IC50 by setting is: (curve of first compound, second compound 0.0316 µM) > 1000 nM; (curve of first compound, second compound 0.1 µM) > 1000 nM; (curve of first compound, second compound 0.316 µM) > 1000 nM; (curve of first compound, second compound 1 µM) > 1000 nM; (curve of first compound, second compound 3.16 µM) 81.8 nM; (curve of first compound, second compound 10 µM) < 3.16 nM. The viability, T/C is, setting by setting: (second compound 0.0316 µM, first compound 0.00316 µM) 101%; (second compound 0.0316 µM, first compound 0.01 µM) 128%; (second compound 0.0316 µM, first compound 0.0316 µM) 101%; (second compound 0.0316 µM, first compound 0.1 µM) 99.2%; (second compound 0.0316 µM, first compound 0.316 µM) 98.4%; (second compound 0.0316 µM, first compound 1 µM) 102%. Further, the viability, T/C is, setting by setting: (second compound 0.1 µM, first compound 0.00316 µM) 109%; (second compound 0.1 µM, first compound 0.01 µM) 113%; (second compound 0.1 µM, first compound 0.0316 µM) 95.7%; (second compound 0.1 µM, first compound 0.1 µM) 93.6%; (second compound 0.1 µM, first compound 0.316 µM) 101%; (second compound 0.1 µM, first compound 1 µM) 112%. Further, the viability, T/C is, setting by setting: (second compound 0.316 µM, first compound 0.00316 µM) 104%; (second compound 0.316 µM, first compound 0.01 µM) 122%; (second compound 0.316 µM, first compound 0.0316 µM) 95.5%; (second compound 0.316 µM, first compound 0.1 µM) 90%; (second compound 0.316 µM, first compound 0.316 µM) 89.8%; (second compound 0.316 µM, first compound 1 µM) 89.3%. Also, the viability, T/C by setting is: (second compound 1 µM, first compound 0.00316 µM) 107%; (second compound 1 µM, first compound 0.01 µM) 109%; (second compound 1 µM, first compound 0.0316 µM) 93%; (second compound 1 µM, first compound 0.1 µM) 86.6%; (second compound 1 µM, first compound 0.316 µM) 77.1%; (second compound 1 µM, first compound 1 µM) 85.3%. For the same compound, the viability, T/C (second compound 3.16 µM, first compound 0.00316 µM) was 64.5%; the viability, T/C (second compound 3.16 µM, first compound 0.01 µM) is 64.1%; the viability, T/C (second compound 3.16 µM, first compound 0.0316 µM) was 60.2%; the viability, T/C (second compound 3.16 µM, first compound 0.1 µM) was 47.3%; the viability, T/C (second compound 3.16 µM, first compound 0.316 µM) is 43.5%; the viability, T/C (second compound 3.16 µM, first compound 1 µM) was 52.8%. The viability, T/C by setting is: (second compound 10 µM, first compound 0.00316 µM) 41.9%; (second compound 10 µM, first compound 0.01 µM) 45.8%; (second compound 10 µM, first compound 0.0316 µM) 36.1%; (second compound 10 µM, first compound 0.1 µM) 34%; (second compound 10 µM, first compound 0.316 µM) 30%; (second compound 10 µM, first compound 1 µM) 30.1%.
